The source of these data is patent US20260306642A1, “STAT DEGRADERS AND USES THEREOF” (Recludix Pharma, Inc., priority 2023, published 2026).

A value given as a limit tells only on which side of the number the result lay.

pSTAT3, sequence (P40763 whole entry): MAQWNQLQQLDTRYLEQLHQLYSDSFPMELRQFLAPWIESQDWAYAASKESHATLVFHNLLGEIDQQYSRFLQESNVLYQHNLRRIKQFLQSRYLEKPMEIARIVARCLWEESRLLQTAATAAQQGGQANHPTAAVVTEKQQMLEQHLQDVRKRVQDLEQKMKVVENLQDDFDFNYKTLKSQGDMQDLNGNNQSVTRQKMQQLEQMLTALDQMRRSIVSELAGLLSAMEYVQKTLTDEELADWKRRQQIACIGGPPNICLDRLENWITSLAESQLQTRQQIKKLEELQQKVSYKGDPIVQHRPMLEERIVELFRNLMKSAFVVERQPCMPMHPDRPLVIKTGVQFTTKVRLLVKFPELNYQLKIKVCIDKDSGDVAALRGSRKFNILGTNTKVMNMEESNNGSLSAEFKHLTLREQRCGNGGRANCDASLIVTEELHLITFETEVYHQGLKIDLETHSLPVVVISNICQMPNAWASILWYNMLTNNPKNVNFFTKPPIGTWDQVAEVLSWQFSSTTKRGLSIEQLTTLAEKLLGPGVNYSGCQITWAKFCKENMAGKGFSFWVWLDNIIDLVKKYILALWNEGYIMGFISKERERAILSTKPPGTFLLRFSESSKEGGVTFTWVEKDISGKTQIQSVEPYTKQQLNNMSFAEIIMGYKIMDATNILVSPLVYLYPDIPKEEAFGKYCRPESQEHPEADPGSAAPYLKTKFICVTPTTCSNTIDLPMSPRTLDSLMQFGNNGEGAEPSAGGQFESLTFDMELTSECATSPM

The first test has as its target pSTAT3 (Homo sapiens, UniProt P40763). The test can be described thus: MSD-pSTAT-PBMC Assay (pSTAT3, IL-6 stimulated). The settings on record: compound 3 hrs, then 10 ng/mL IL-6 10 min, pY705-STAT3, read-out: pSTAT3 IC50. The format is cell-based. From the text: Cryopreserved Peripheral Blood Mononuclear Cells (PBMC) are from AllCells. Recombinant Human IL-4 and IL-6 are from Peprotech. Mouse monoclonal anti-STAT3 antibody, rabbit monoclonal anti-pY705-STAT3 antibody, rabbit monoclonal Anti-pY641-STAT6 antibody, and lysis buffer are from Cell Signaling Technology (CST). Mouse monoclonal anti-STAT6 antibody is from BioLegend. Assay plates, blocker, and anti-rabbit secondary antibody are from Meso Scale Discovery (MSD).
Cryopreserved PBMCs were thawed out and allowed to recover overnight in IMDM+10% heat-inactivated FBS prior to plating 50,000 (STAT3) or 25,000 (STAT6) cells per well in 96-well U-bottom tissue culture plates. Cells were treated with compound for 3 hrs, then stimulated with 10 ng/mL IL-6 (STAT3) or 1 ng/mL IL-4 (STAT6) for 10 min. Cells were then spun down and washed with ice-cold PBS prior to lysing the cell pellet with 1× lysis buffer (CST) with 1× HALT protease and phosphatase inhibitor cocktail (Thermo). Lysates were transferred to and incubated overnight at 4° C. with shaking in QuickPlex 96-well high bind assay plates (MSD) pre-coated overnight with 30 μL per well of […] mouse monoclonal anti-STAT3 antibody (STAT3) or 2 μg/mL mouse monoclonal anti-STAT6 antibody (STAT6) in 1× PBS, and pre-blocked for 1 hour with 3% Blocker-A (MSD). Captured protein in the assay plates were then washed and probed with 25 μL per well of […] rabbit monoclonal anti-pY705-STAT3 antibody (STAT3) or […] rabbit monoclonal Anti-pY641-STAT6 antibody (STAT6) in 1% Blocker-A for 1 hour at room temperature with shaking, then washed and probed with 25 ul per well of 1 ug/ml Sulfo-TAG Labeled Goat Anti-Rabbit Antibody (MSD) in 1% Blocker-A for 1 hour at room temperature with shaking. Assay plates were then washed and 150 μL of 1× Read Buffer-T (MSD) was added to each well prior to reading on an SQ120 MSD Plate Reader. Assay signal from each sample was subtracted by the signal from unstimulated control wells and normalized to DMSO control wells. IC50 values were calculated using Graph Pad Prism Dose-Response Nonlinear Regression with variable slope. For both pSTAT3 and pSTAT6 A=≤100 nM; B=>100-1000 nM; C=>1000-3000 nM; and D=>3 μM.
As for `CCCC(=O)SCCOP(=O)(OCCSC(=O)CCC)C(F)(F)c1ccc2sc(C(=O)N[C@H]3CCC[C@H]4CC[C@@H](C(=O)N5CC(c6cnccc6OCCCCN[C@H](C(=O)N6C[C@H](O)C[C@H]6C(=O)NCc6ccc(-c7scnc7C)cc6)C(C)(C)C)C5)N4C3=O)cc2c1` [Compound 1, S,S((((difluoro(2-(((3S,6S,9aS)-3-(3-(4-(4-(((S)-1-((2S,4R)-4-hydroxy-2-((4-(4-methylthiazol-5-yl)benzyl)carbamoyl)pyrrolidin-1-yl)-3,3-dimethyl-1-oxobutan-2-yl)amino)butoxy)pyridin-3-yl)azetidine-1-carbonyl)-5-oxooctahydro-1H-pyrrolo[1,2-a]azepin-6-yl)carbamoyl)benzo[b]thiophen-5-yl)methyl)phosphoryl)bis(oxy))bis(ethane-2,1-diyl)) dibutanethioate], the IC50 was in the range of 100 to 1000 nM.

Take `CCCC(=O)SCCOP(=O)(OCCSC(=O)CCC)C(F)(F)c1ccc2sc(C(=O)N[C@H]3CCC[C@H]4CC[C@@H](C(=O)N5CC(c6cnccc6OCCOc6ccc(C7CCC(=O)NC7=O)cc6)C5)N4C3=O)cc2c1` (stereo partly drawn) [Compound 10, S,S(((((2-(((3S,6S,9aS)-3-(3-(4-(2-(4-(2,6-dioxopiperidin-3-yl)phenoxy)ethoxy)pyridin-3-yl)azetidine-1-carbonyl)-5-oxooctahydro-1H-pyrrolo[1,2-a]azepin-6-yl)carbamoyl)benzo[b]thiophen-5-yl)difluoromethyl)phosphoryl)bis(oxy))bis(ethane-2,1-diyl)) dibutanethioate]: the IC50 was below 100 nM.

Turning to `CCCC(=O)SCCOP(=O)(OCCSC(=O)CCC)C(F)(F)c1ccc2sc(C(=O)N[C@H]3CCC[C@H]4CC[C@@H](C(=O)N5CC(c6cnccc6OCCOCCOc6ccc(C7CCC(=O)NC7=O)cc6)C5)N4C3=O)cc2c1` (stereo partly drawn) [Compound 12, S,S((((2-(((3S,6S,9aS)-3-(3-(4-(2-(2-(4-(2,6-dioxopiperidin-3-yl)phenoxy)ethoxy)ethoxy)pyridin-3-yl)azetidine-1-carbonyl)-5-oxooctahydro-1H-pyrrolo[1,2-a]azepin-6-yl)carbamoyl)benzo[b]thiophen-5-yl)difluoromethyl)phosphoryl)bis(oxy))bis(ethane-2,1-diyl)) dibutanethioate], the IC50 is below 100 nM.

As to `CCCC(=O)SCCOP(=O)(OCCSC(=O)CCC)C(F)(F)c1ccc2sc(C(=O)N[C@H]3CCC[C@H]4CC[C@@H](C(=O)N5CC(c6cnccc6N(C)CCOc6ccc(C7CCC(=O)NC7=O)cc6)C5)N4C3=O)cc2c1` (stereo partly drawn) [Compound 20, S,S(((((2-(((3S,6S,9aS)-3-(3-(4-((2-(4-(2,6-dioxopiperidin-3-yl)phenoxy)ethyl)(methyl)amino)pyridin-3-yl)azetidine-1-carbonyl)-5-oxooctahydro-1H-pyrrolo[1,2-a]azepin-6-yl)carbamoyl)benzo[b]thiophen-5-yl)difluoromethyl)phosphoryl)bis(oxy))bis(ethane-2,1-diyl)) dibutanethioate], the IC50 was below 100 nM.

Consider `Cn1c(=O)n(C2CCC(=O)NC2=O)c2ccc(C#CCCC3CCN(c4ccncc4C4CN(C(=O)[C@@H]5CC[C@@H]6CCC[C@H](NC(=O)c7cc8cc(C(F)(F)P(=O)(OCCSC(=O)C(C)(C)C)OCCSC(=O)C(C)(C)C)ccc8s7)C(=O)N65)C4)CC3)cc21` (stereo partly drawn) [Compound 35, S,S(((((2-(((3S,6S,9aS)-3-(3-(4-(4-(4-(1-(2,6-dioxopiperidin-3-yl)-3-methyl-2-oxo-2,3-dihydro-1H-benzo[d]imidazol-5-yl)but-3-yn-1-yl)piperidin-1-yl)pyridin-3-yl)azetidine-1-carbonyl)-5-oxooctahydro-1H-pyrrolo[1,2-a]azepin-6-yl)carbamoyl)benzo[b]thiophen-5-yl)difluoromethyl)phosphoryl)bis(oxy))bis(ethane-2,1-diyl)) bis(2,2-dimethylpropanethioate)], for which the IC50 is below 100 nM.

Staying with this test, now noted: read-out: pSTAT3 IC50, compound 3 hrs, then 10 ng/mL IL-6 10 min, pY705-STAT3.
Take `CCCC(=O)SCCOP(=O)(OCCSC(=O)CCC)C(F)(F)c1ccc2sc(C(=O)N[C@H]3CCC[C@H]4CC[C@@H](C(=O)N5CC(c6cnccc6N6CCC(C(=O)N[C@H](C(=O)N7C[C@H](O)C[C@H]7C(=O)NCc7ccc(-c8scnc8C)cc7)C(C)(C)C)CC6)C5)N4C3=O)cc2c1` [Compound 7, S,S((((difluoro(2-(((3S,6S,9aS)-3-(3-(4-(4-(((S)-1-((2S,4R)-4-hydroxy-2-((4-(4-methylthiazol-5-yl)benzyl)carbamoyl)pyrrolidin-1-yl)-3,3-dimethyl-1-oxobutan-2-yl)carbamoyl)piperidin-1-yl)pyridin-3-yl)azetidine-1-carbonyl)-5-oxooctahydro-1H-pyrrolo[1,2-a]azepin-6-yl)carbamoyl)benzo[b]thiophen-5-yl)methyl)phosphoryl)bis(oxy))bis(ethane-2,1-diyl)) dibutanethioate]: the IC50 was in the range of 100 to 1000 nM.

Take `CCCC(=O)SCCOP(=O)(OCCSC(=O)CCC)C(F)(F)c1ccc2sc(C(=O)N[C@H]3CCC[C@H]4CC[C@@H](C(=O)N5CC(c6cnccc6N6CCN(C(=O)COc7ccc(C8CCC(=O)NC8=O)cc7)CC6)C5)N4C3=O)cc2c1` (stereo partly drawn) [Compound 29, S,S(((((2-(((3S,6S,9aS)-3-(3-(4-(4-(2-(4-(2,6-dioxopiperidin-3-yl)phenoxy)acetyl)piperazin-1-yl)pyridin-3-yl)azetidine-1-carbonyl)-5-oxooctahydro-1H-pyrrolo[1,2-a]azepin-6-yl)carbamoyl)benzo[b]thiophen-5-yl)difluoromethyl)phosphoryl)bis(oxy))bis(ethane-2,1-diyl)) dibutanethioate]: the IC50 is below 100 nM.

`CCCOC(=O)[C@H](C)NP(=O)(Oc1ccccc1)[C@@H](F)c1ccc2sc(C(=O)N[C@H]3CCC[C@H]4CC[C@@H](C(=O)N5CC(c6cnccc6N6CCC(CCC#Cc7ccc8c(c7)n(C)c(=O)n8C7CCC(=O)NC7=O)CC6)C5)N4C3=O)cc2c1` (stereo partly drawn) [Compound 38, propyl (((1R)-(2-(((3S,6S,9aS)-3-(3-(4-(4-(4-(1-(2,6-dioxopiperidin-3-yl)-3-methyl-2-oxo-2,3-dihydro-1H-benzo[d]imidazol-5-yl)but-3-yn-1-yl)piperidin-1-yl)pyridin-3-yl)azetidine-1-carbonyl)-5-oxooctahydro-1H-pyrrolo[1,2-a]azepin-6-yl)carbamoyl)benzo[b]thiophen-5-yl)fluoromethyl)(phenoxy)phosphoryl)-L-alaninate]: the IC50 was below 100 nM.

Regarding `CCCOC(=O)[C@H](C)NP(=O)(Oc1ccccc1)[C@H](F)c1ccc2sc(C(=O)N[C@H]3CCC[C@H]4CC[C@@H](C(=O)N5CC(c6cnccc6N6CCC(CCC#Cc7ccc8c(c7)n(C)c(=O)n8C7CCC(=O)NC7=O)CC6)C5)N4C3=O)cc2c1` (stereo partly drawn) [Compound 39, propyl (((1S)-(2-(((3S,6S,9aS)-3-(3-(4-(4-(4-(1-(2,6-dioxopiperidin-3-yl)-3-methyl-2-oxo-2,3-dihydro-1H-benzo[d]imidazol-5-yl)but-3-yn-1-yl)piperidin-1-yl)pyridin-3-yl)azetidine-1-carbonyl)-5-oxooctahydro-1H-pyrrolo[1,2-a]azepin-6-yl)carbamoyl)benzo[b]thiophen-5-yl)fluoromethyl)(phenoxy)phosphoryl)-L-alaninate], the IC50 was below 100 nM.
